One may read the EC50 as the concentration that produces a half-maximal response.

Marks after values point to notes of the source that are not given here. Residues, ends and D or L forms follow the SMILES beside them. No end group written: not given here.

This is an account of results in PMC2742306 (Molecular cell, 2009).

In test [1] the target is T1, wild-type DegS (Escherichia coli, UniProt P0AEE3). The test is described as follows: OMP-peptide activation of RseA cleavage by wild-type DegS. Type of test: biochemical, E. coli. The conditions noted are these: for Hill Constant (peptide activation): 200 μM RseA.
T1 sequence (P0AEE3 27-355): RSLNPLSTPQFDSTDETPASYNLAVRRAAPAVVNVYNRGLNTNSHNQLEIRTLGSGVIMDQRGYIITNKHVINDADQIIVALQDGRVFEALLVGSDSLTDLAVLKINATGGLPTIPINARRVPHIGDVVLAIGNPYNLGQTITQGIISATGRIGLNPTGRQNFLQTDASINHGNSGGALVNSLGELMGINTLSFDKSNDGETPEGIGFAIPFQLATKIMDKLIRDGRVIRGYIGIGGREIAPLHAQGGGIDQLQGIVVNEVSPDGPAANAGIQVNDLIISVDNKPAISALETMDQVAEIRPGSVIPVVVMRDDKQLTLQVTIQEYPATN
Test [2] addresses T2, K243D mutant of DegS (Escherichia coli, UniProt P0AEE3, K243D). Briefly: OMP-peptide activation of RseA cleavage by K243D DegS. The settings on record: K243D. Type of test: biochemical, E. coli.
Test [3] addresses T3, D320A DegS (Escherichia coli, UniProt P0AEE3, D320A). Briefly: OMP-peptide activation of RseA cleavage by D320A DegS. In kind it is biochemical, E. coli. The conditions noted are these: D320A; for Hill Constant (peptide activation): 200 μM RseA.
The target in test [4] is T2, K243D mutant of DegS. Briefly: Global fit to MWC allosteric model, K243D DegS. The conditions noted are these: K243D, MWC global fit. In kind it is biochemical, E. coli.
In test [5] the target is T3, D320A DegS. The test is described as follows: Global fit to MWC allosteric model, D320A DegS. Type of test: biochemical, E. coli. The conditions noted are these: D320A, MWC global fit; for KRS, dissociation constant of RseA substrate for R-state subunit / KTS, dissociation constant of RseA substrate for T-state subunit: not peptide, binding; for L0, equilibrium constant T/R of unliganded enzyme: enzyme parameter, peptide-independent; for KTP/KRP: peptide preference for relaxed state; for kr, rate constant for cleavage of RseA by substrate-bound R-state subunits: same value for all enzymes and peptides.

Test [6] deals with T1, wild-type DegS. Type of test: biochemical, E. coli. The settings on record: for L0, equilibrium constant T/R of unliganded enzyme / KTP/KRP / kr, rate constant for cleavage of RseA by substrate-bound R-state subunits: MWC global fit; for L0, equilibrium constant T/R of unliganded enzyme: enzyme parameter, peptide-independent; for KTP/KRP: peptide preference for relaxed state; for kr, rate constant for cleavage of RseA by substrate-bound R-state subunits: same value for all enzymes and peptides.

Test [7] has as its target DegS K243D (residues 27–355, N-terminal His6 tag) (E. coli) (UniProt P0AEE3). Briefly: enzyme kinetics.
Test [8] deals with T1, wild-type DegS. In kind it is biochemical, E. coli. The settings on record: wild-type DegS 0.9 μM trimer; 20 μM rhodamine-FP; saturating peptide.
In test [9] the target is T4, DegS D320A (residues 27–355, N-terminal His6 tag) (E. coli, UniProt P0AEE3 27-355, D320A).
T4 sequence (looked up): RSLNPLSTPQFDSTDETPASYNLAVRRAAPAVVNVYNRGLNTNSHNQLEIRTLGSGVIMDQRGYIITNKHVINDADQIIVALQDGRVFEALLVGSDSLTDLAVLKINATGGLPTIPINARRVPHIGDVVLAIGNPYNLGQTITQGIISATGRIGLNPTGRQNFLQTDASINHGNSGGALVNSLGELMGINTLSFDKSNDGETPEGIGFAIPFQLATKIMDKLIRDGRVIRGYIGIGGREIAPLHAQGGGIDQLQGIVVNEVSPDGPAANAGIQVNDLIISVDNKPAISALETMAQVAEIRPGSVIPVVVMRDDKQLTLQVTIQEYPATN
Briefly: enzyme kinetics.

Test [10] concerns the target T5, DegS K243D (residues 27–355, N-terminal His6 tag) (E. coli, UniProt P0AEE3 27-355, K243D).
T5 sequence (looked up): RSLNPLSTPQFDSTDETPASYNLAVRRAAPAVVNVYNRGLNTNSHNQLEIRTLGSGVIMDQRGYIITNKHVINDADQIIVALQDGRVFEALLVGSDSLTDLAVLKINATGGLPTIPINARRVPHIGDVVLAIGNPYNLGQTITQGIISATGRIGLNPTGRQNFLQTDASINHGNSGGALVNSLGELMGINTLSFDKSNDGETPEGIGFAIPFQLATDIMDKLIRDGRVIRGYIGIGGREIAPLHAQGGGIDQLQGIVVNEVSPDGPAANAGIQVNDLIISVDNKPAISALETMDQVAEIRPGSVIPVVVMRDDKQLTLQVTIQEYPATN
Briefly: enzyme kinetics.

The mark [11] stands for this setting: saturating peptide, single sub-KM RseA concentration.

For `NC(=O)CC[C@H](NC(=O)[C@@H](N)Cc1ccc(O)cc1)C(=O)N[C@@H](Cc1ccccc1)C(=O)O` [YQF] (H-Tyr-Gln-Phe-OH), in test [1] (wild-type DegS), the “displacement in concentration between YYF and YQF activation curves” value was ~10 fold; the “Hill Constant (peptide activation)” value is 1.6 ± 0.1.

On to DNRDGNVYQF [DNRDGNVYQF], for which the figures for the “Hill Constant (peptide activation)” value in test [2] (200 μM RseA), in [3] and in [1] (wild-type DegS) were 1.3 ± 0.1, 1.2 ± 0.1 and 1.6 ± 0.1, respectively. Also, the “RseA cleavage relative to wild-type DegS” value in test [2] (setting [11]) and in test [3] (setting [11]) was “about three-fold faster” in each case. Moreover, the “KRS, dissociation constant of RseA substrate for R-state subunit” value in test [4] (RseA, not peptide, binding) worked out at 150 µM; in test [5] it was 150 µM. The “KTS, dissociation constant of RseA substrate for T-state subunit” value in test [4] (RseA, not peptide, binding) stood at 505 µM; in [5] it was 505 µM. Moreover, the “L0, equilibrium constant T/R of unliganded enzyme” value (from here on “L0, equilibrium constant T/R”) stood at 180 in [4] (enzyme parameter, peptide-independent); 350 in test [5]; 15000 in test [6]. The KTP/KRP is reported as 1.9 in test [4] (peptide preference for relaxed state), 2.8 in [5] and 6.1 in test [6]. Besides, the “kr, rate constant for cleavage of RseA by substrate-bound R-state subunits” value (shortened to “kr … by substrate-bound R-state subunits”) was 3.3 s⁻¹ in test [4] (same value for all enzymes and peptides); 3.3 s⁻¹ in [5]; 3.3 s⁻¹ in test [6].

In test [7], YYF tripeptide returned a KRP (dissociation constant for an R-state subunit) of 1.24 µM and a KTP (dissociation constant for a T-state subunit) of 3.76 µM.

Take KRRKGKVYYF [KRRKGKVYYF]: in test [8], the “rate of rhodamine-FP modification in presence of peptide (order)” value is reported as “slowest”. Moreover, in test [1], the EC50 is ≤ 1000 nM. Moreover, the “Hill Constant (peptide activation)” value in [1] (wild-type DegS) is ~1.2 ^a. Besides, the “apparent affinity (in words)” value in test [1] (wild-type DegS, among tested peptides) is given as “highest apparent affinity”. Besides, the “maximal activation (in words)” value in test [1] (wild-type DegS, saturating peptide) is “lowest maximal activation”. In test [6], the “L0, equilibrium constant T/R” value was 15000; the KTP/KRP amounted to 3.3; the “kr … by substrate-bound R-state subunits” value is 3.3 s⁻¹. In test [6] (saturating peptide and saturating RseA substrate, MWC model), the “DegS molecules in active conformation” value was 9%.

With EDGEDGDYYF [EDGEDGDYYF], the “rate of rhodamine-FP modification in presence of peptide (order)” value in [8] was “slower still”. The “Hill Constant (peptide activation)” value in test [3] is 1.3 ± 0.1. In test [5], the “KRS, dissociation constant of RseA substrate for R-state subunit” value turned out to be 150 µM; the “KTS, dissociation constant of RseA substrate for T-state subunit” value came to 505 µM; the “L0, equilibrium constant T/R” value was determined as 350; the KTP/KRP turned out to be 2.1. Moreover, the “kr … by substrate-bound R-state subunits” value in test [5] stood at 3.3 s⁻¹. Besides, the “Hill Constant (peptide activation)” value in test [1] (wild-type DegS) is 1.3 ± 0.1.

On to EDGEDGDYYF [OMP peptide EDGEDGDYYF], for which, in test [9], the “KRP (dissociation constant for an R-state subunit)” value is 4.02 µM and the “KTP (dissociation constant for a T-state subunit)” value is 8.5 µM.

Consider DNRDGNVYYF [OMP peptide DNRDGNVYYF], for which, in test [10], the “KRP (dissociation constant for an R-state subunit)” value amounted to 0.07 µM and the “KTP (dissociation constant for a T-state subunit)” value came to 0.14 µM. Moreover, in [9], the “KRP (dissociation constant for an R-state subunit)” value was determined as 0.06 µM and the “KTP (dissociation constant for a T-state subunit)” value turned out to be 0.2 µM.

Take DNRDGNVYQF [OMP peptide DNRDGNVYQF]: in [10], the “KRP (dissociation constant for an R-state subunit)” value is 1.64 µM and the “KTP (dissociation constant for a T-state subunit)” value stood at 3.19 µM. Besides, in [9], the “KRP (dissociation constant for an R-state subunit)” value was 1.09 µM and the “KTP (dissociation constant for a T-state subunit)” value was 2.98 µM.
